Assay results reported in paper PMC4411097, “Pachymic Acid Inhibits Growth and Induces Apoptosis of Pancreatic Cancer In Vitro and In Vivo by Targeting ER Stress” (PLoS ONE, 2015).

System: MIA PaCa-2 cells
Assay: DNA microarray analysis (Affymetrix Human PrimeView);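 on Mean (MiaPaca-2 * PA): Log2-transformed RMA normalized probe set signal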
Type: cell-based
[1] = gene ATF3, probeset 11753632_x_at
[2] = gene C3orf52, probeset 11724431_at
[3] = gene C3orf59, probeset 11722936_at
[4] = gene C17orf91, probeset 11740895_a_at
[5] = gene C17orf91, probeset 11740896_s_at
[6] = gene CASP1, probeset 11750553_x_at
[7] = gene CCNE2, probeset 11728301_a_at
[8] = gene CD83, probeset 11743000_at
[9] = gene CDCP1, probeset 11732062_a_at
[10] = gene CDKN1A, probeset 11715387_at
[11] = gene CEBPG, probeset 11717693_at
[12] = gene CTGF, probeset 11715440_a_at
[13] = gene CTPS, probeset 11747890_a_at
[14] = gene CTSC, probeset 11731465_a_at
[15] = gene DDIT3, probeset 11758198_s_at
[16] = gene DNAJB1, probeset 11715445_a_at
[17] = gene DNAJB1, probeset 11715446_a_at
[18] = gene EGR1, probeset 11717862_x_at
[19] = gene EGR1, probeset 11754334_s_at
[20] = gene EGR3, probeset 11736342_at
[21] = gene EIF4A2, probeset 11760707_a_at
[22] = gene EIF4A2, probeset 11760708_at
[23] = gene FOS, probeset 11734659_a_at
[24] = gene FOSL1, probeset 11760574_x_at
[25] = gene HKDC1, probeset 11722519_at
[26] = gene HKDC1, probeset 11722521_at

C=C(CC[C@@H](C(=O)O)[C@H]1[C@H](O)C[C@@]2(C)C3=C(CC[C@]12C)[C@@]1(C)CC[C@H](OC(C)=O)C(C)(C)[C@@H]1CC3)C(C)C [PA, Pachymic acid]
Fold-Change (MiaPaca-2 * PA vs. MiaPaca-2 * control) (gene AEN, probeset 11754296_a_at, MiaPaca-2): 1.50 | Mean (MiaPaca-2 * PA) (gene AEN, probeset 11754296_a_at, MiaPaca-2, PA-treated): 8.26 | Fold-Change (MiaPaca-2 * PA vs. MiaPaca-2 * control) [1]: 1.60 | Mean (MiaPaca-2 * PA) [1]: 5.51 | Fold-Change (MiaPaca-2 * PA vs. MiaPaca-2 * control) [2]: 1.60 | Mean (MiaPaca-2 * PA) [2]: 7.34 | Fold-Change (MiaPaca-2 * PA vs. MiaPaca-2 * control) [3]: 1.55 | Mean (MiaPaca-2 * PA) [3]: 8.02 | Fold-Change (MiaPaca-2 * PA vs. MiaPaca-2 * control) (gene C6orf145, probeset 11754483_a_at, MiaPaca-2): 1.51 | Mean (MiaPaca-2 * PA) (gene C6orf145, probeset 11754483_a_at, MiaPaca-2, PA-treated): 7.32 | Fold-Change (MiaPaca-2 * PA vs. MiaPaca-2 * control) [4]: 1.61 | Mean (MiaPaca-2 * PA) [4]: 7.42 | Fold-Change (MiaPaca-2 * PA vs. MiaPaca-2 * control) [5]: 1.67 | Mean (MiaPaca-2 * PA) [5]: 7.56 | Fold-Change (MiaPaca-2 * PA vs. MiaPaca-2 * control) (gene CAMTA1, probeset 11723154_s_at, MiaPaca-2): 1.52 | Mean (MiaPaca-2 * PA) (gene CAMTA1, probeset 11723154_s_at, MiaPaca-2, PA-treated): 6.50 | Fold-Change (MiaPaca-2 * PA vs. MiaPaca-2 * control) (gene CAPRIN2, probeset 11749098_a_at, MiaPaca-2): 1.50 | Mean (MiaPaca-2 * PA) (gene CAPRIN2, probeset 11749098_a_at, MiaPaca-2, PA-treated): 8.43 | Fold-Change (MiaPaca-2 * PA vs. MiaPaca-2 * control) (gene CASP1, probeset 11738884_x_at, MiaPaca-2): 1.53 | Mean (MiaPaca-2 * PA) (gene CASP1, probeset 11738884_x_at, MiaPaca-2, PA-treated): 7.07 | Fold-Change (MiaPaca-2 * PA vs. MiaPaca-2 * control) [6]: 1.55 | Mean (MiaPaca-2 * PA) [6]: 7.39 | Fold-Change (MiaPaca-2 * PA vs. MiaPaca-2 * control) [7]: 1.56 | Mean (MiaPaca-2 * PA) [7]: 6.40 | Fold-Change (MiaPaca-2 * PA vs. MiaPaca-2 * control) [8]: 1.58 | Mean (MiaPaca-2 * PA) [8]: 7.70 | Fold-Change (MiaPaca-2 * PA vs. MiaPaca-2 * control) (gene CDC25A, probeset 11726757_s_at, MiaPaca-2): 1.51 | Mean (MiaPaca-2 * PA) (gene CDC25A, probeset 11726757_s_at, MiaPaca-2, PA-treated): 7.92 | Fold-Change (MiaPaca-2 * PA vs. MiaPaca-2 * control) [9]: 1.58 | Mean (MiaPaca-2 * PA) [9]: 6.86 | Fold-Change (MiaPaca-2 * PA vs. MiaPaca-2 * control) [10]: 1.56 | Mean (MiaPaca-2 * PA) [10]: 6.94 | Fold-Change (MiaPaca-2 * PA vs. MiaPaca-2 * control) [11]: 1.57 | Mean (MiaPaca-2 * PA) [11]: 9.81 | Fold-Change (MiaPaca-2 * PA vs. MiaPaca-2 * control) (gene CEBPG, probeset 11717694_a_at, MiaPaca-2): 1.51 | Mean (MiaPaca-2 * PA) (gene CEBPG, probeset 11717694_a_at, MiaPaca-2, PA-treated): 8.37 | Fold-Change (MiaPaca-2 * PA vs. MiaPaca-2 * control) (gene CIDEB, probeset 11752838_s_at, MiaPaca-2): 1.52 | Mean (MiaPaca-2 * PA) (gene CIDEB, probeset 11752838_s_at, MiaPaca-2, PA-treated): 5.52 | Fold-Change (MiaPaca-2 * PA vs. MiaPaca-2 * control) [12]: 1.65 | Mean (MiaPaca-2 * PA) [12]: 5.48 | Fold-Change (MiaPaca-2 * PA vs. MiaPaca-2 * control) [13]: 1.56 | Mean (MiaPaca-2 * PA) [13]: 7.43 | Fold-Change (MiaPaca-2 * PA vs. MiaPaca-2 * control) [14]: 1.61 | Mean (MiaPaca-2 * PA) [14]: 7.37 | Fold-Change (MiaPaca-2 * PA vs. MiaPaca-2 * control) [15]: 1.54 | Mean (MiaPaca-2 * PA) [15]: 6.68 | Fold-Change (MiaPaca-2 * PA vs. MiaPaca-2 * control) [16]: 1.59 | Mean (MiaPaca-2 * PA) [16]: 10.46 | Fold-Change (MiaPaca-2 * PA vs. MiaPaca-2 * control) [17]: 1.56 | Mean (MiaPaca-2 * PA) [17]: 11.54 | Fold-Change (MiaPaca-2 * PA vs. MiaPaca-2 * control) (gene DUSP2, probeset 11721695_s_at, MiaPaca-2): 1.51 | Mean (MiaPaca-2 * PA) (gene DUSP2, probeset 11721695_s_at, MiaPaca-2, PA-treated): 7.47 | Fold-Change (MiaPaca-2 * PA vs. MiaPaca-2 * control) (gene DUSP5, probeset 11717863_a_at, MiaPaca-2): 1.52 | Mean (MiaPaca-2 * PA) (gene DUSP5, probeset 11717863_a_at, MiaPaca-2, PA-treated): 7.89 | Fold-Change (MiaPaca-2 * PA vs. MiaPaca-2 * control) (gene DUSP6, probeset 11741980_a_at, MiaPaca-2): 1.53 | Mean (MiaPaca-2 * PA) (gene DUSP6, probeset 11741980_a_at, MiaPaca-2, PA-treated): 10.54 | Fold-Change (MiaPaca-2 * PA vs. MiaPaca-2 * control) [18]: 1.65 | Mean (MiaPaca-2 * PA) [18]: 7.37 | Fold-Change (MiaPaca-2 * PA vs. MiaPaca-2 * control) [19]: 1.60 | Mean (MiaPaca-2 * PA) [19]: 10.76 | Fold-Change (MiaPaca-2 * PA vs. MiaPaca-2 * control) [20]: 1.55 | Mean (MiaPaca-2 * PA) [20]: 6.51 | Fold-Change (MiaPaca-2 * PA vs. MiaPaca-2 * control) [21]: 1.61 | Mean (MiaPaca-2 * PA) [21]: 10.11 | Fold-Change (MiaPaca-2 * PA vs. MiaPaca-2 * control) [22]: 1.66 | Mean (MiaPaca-2 * PA) [22]: 7.82 | Fold-Change (MiaPaca-2 * PA vs. MiaPaca-2 * control) (gene EIF4A2 /// SNORA4, probeset 11757137_s_at, MiaPaca-2): 1.51 | Mean (MiaPaca-2 * PA) (gene EIF4A2 /// SNORA4, probeset 11757137_s_at, MiaPaca-2, PA-treated): 5.63 | Fold-Change (MiaPaca-2 * PA vs. MiaPaca-2 * control) (gene EREG, probeset 11763822_at, MiaPaca-2): 1.52 | Mean (MiaPaca-2 * PA) (gene EREG, probeset 11763822_at, MiaPaca-2, PA-treated): 6.66 | Fold-Change (MiaPaca-2 * PA vs. MiaPaca-2 * control) (gene FLJ36031, probeset 11739442_s_at, MiaPaca-2): 1.53 | Mean (MiaPaca-2 * PA) (gene FLJ36031, probeset 11739442_s_at, MiaPaca-2, PA-treated): 8.29 | Fold-Change (MiaPaca-2 * PA vs. MiaPaca-2 * control) [23]: 1.61 | Mean (MiaPaca-2 * PA) [23]: 7.33 | Fold-Change (MiaPaca-2 * PA vs. MiaPaca-2 * control) (gene FOSL1, probeset 11724479_x_at, MiaPaca-2): 1.52 | Mean (MiaPaca-2 * PA) (gene FOSL1, probeset 11724479_x_at, MiaPaca-2, PA-treated): 6.50 | Fold-Change (MiaPaca-2 * PA vs. MiaPaca-2 * control) [24]: 1.56 | Mean (MiaPaca-2 * PA) [24]: 8.39 | Fold-Change (MiaPaca-2 * PA vs. MiaPaca-2 * control) (gene GBP1, probeset 11726328_x_at, MiaPaca-2): 1.50 | Mean (MiaPaca-2 * PA) (gene GBP1, probeset 11726328_x_at, MiaPaca-2, PA-treated): 5.03 | Fold-Change (MiaPaca-2 * PA vs. MiaPaca-2 * control) (gene HERPUD1, probeset 11741510_a_at, MiaPaca-2): 1.50 | Mean (MiaPaca-2 * PA) (gene HERPUD1, probeset 11741510_a_at, MiaPaca-2, PA-treated): 9.22 | Fold-Change (MiaPaca-2 * PA vs. MiaPaca-2 * control) [25]: 1.60 | Mean (MiaPaca-2 * PA) [25]: 8.79 | Fold-Change (MiaPaca-2 * PA vs. MiaPaca-2 * control) [26]: 1.59 | Mean (MiaPaca-2 * PA) [26]: 6.86 | Fold-Change (MiaPaca-2 * PA vs. MiaPaca-2 * control) (gene HMOX1, probeset 11753446_x_at, MiaPaca-2): 1.50 | Mean (MiaPaca-2 * PA) (gene HMOX1, probeset 11753446_x_at, MiaPaca-2, PA-treated): 6.67
